How the values were obtained:
[1] = system: women with ER+, HER2− advanced breast cancer; assay: Digital, centrally read triplicate ECGs (resting heart rate, QTcF); parameters: species or system human; settings: in vivo
Source text: Digital, centrally read, triplicate ECGs were obtained throughout the study.

[2] = Plasma pharmacokinetics by validated LC/MS-MS (cycle 1, day 15); type: in vivo; settings: human, oral; for AUC / Cmax: Cycle 1 Day 15, geomean; for Tmax: Cycle 1 Day 15, median
Procedure: Details of safety and efficacy assessments and of ctDNA sampling and assessments have been described previously ([37]). For PK analyses, plasma concentrations of camizestrant, abemaciclib, palbociclib, and ribociclib were determined using validated LC/MS-MS.
Details of assessments and analysis sets have been described previously ([38]). Briefly, safety was assessed in the safety analysis set, and efficacy and antitumor activity were assessed in the evaluable-for-response set. PK was assessed in the PK analysis set, which included all patients who provided at least one quantifiable postdose PK concentration for either camizestrant or any of the other agents evaluated.

[3] = 75 mg, camizestrant 75 mg monotherapy
[4] = 150 mg, camizestrant 150 mg monotherapy
[5] = 300 mg, camizestrant 300 mg monotherapy
[6] = camizestrant 75 mg + abemaciclib
[7] = camizestrant 75 mg + palbociclib
[8] = camizestrant 75 mg + ribociclib (400 mg)
[9] = camizestrant 75 mg + ribociclib (600 mg)
[10] = camizestrant 150 mg + abemaciclib
[11] = camizestrant 150 mg + palbociclib
[12] = camizestrant 300 mg + palbociclib

Which “Time of gradual decrease in resting HR to stable nadir” value [1] does the source give for C[C@@H]1Cc2c(ccc3[nH]ncc23)[C@@H](c2ccc(NC3CN(CCCF)C3)cn2)N1CC(F)(F)F [camizestrant] here?
Its value is “approximately 14 days”.

What about the AUC [2, 3] of the same compound?
The AUC was 862 ng·h/mL.

And the Cmax [2, 3]?
The Cmax was 64.7 ng/mL.

What about the Tmax [2, 3] of the same compound?
The Tmax was 3.72 h.

What about the AUC [2, 4] of the same compound?
The AUC was 2160 ng·h/mL.

And the Cmax [2, 4]?
The Cmax was 166 ng/mL.

And the Tmax [2, 4]?
Its Tmax is 2.17 h.

What about the AUC [2, 5] of the same compound?
The AUC was 4780 ng·h/mL.

And the Cmax [2, 5]?
The Cmax was 376 ng/mL.

And the Tmax [2, 5]?
Its Tmax is 3 h.

What about the half-life ([2]; across combinations, PK sampled up to 24 hours, likely underestimated, read-out: Estimated half-life of camizestrant) of the same compound?
Its half-life is 9.5 to 17 h.

What about the AUC [2, 6] of the same compound?
The AUC was 1120 ng·h/mL.

And the Cmax [2, 6]?
Its Cmax is 85.4 ng/mL.

What about the Tmax [2, 6] of the same compound?
Its Tmax is 4 h.

What about the AUC [2, 7] of the same compound?
The AUC was 1200 ng·h/mL.

What about the Cmax [2, 7] of the same compound?
Its Cmax is 93.9 ng/mL.

What about the Tmax [2, 7] of the same compound?
The Tmax was 4 h.

And the AUC [2, 8]?
The AUC was 2280 ng·h/mL.

What about the Cmax [2, 8] of the same compound?
The Cmax was 154 ng/mL.

What about the Tmax [2, 8] of the same compound?
The Tmax was 3.6 h.

What about the AUC [2, 9] of the same compound?
The AUC was 2750 ng·h/mL.

What about the Cmax [2, 9] of the same compound?
The Cmax was 179 ng/mL.

And the Tmax [2, 9]?
Its Tmax is 4 h.

What about the AUC [2, 10] of the same compound?
The AUC was 2050 ng·h/mL.

What about the Cmax [2, 10] of the same compound?
The Cmax was 159 ng/mL.

What about the Tmax [2, 10] of the same compound?
Its Tmax is 4 h.

What about the AUC [2, 11] of the same compound?
The AUC was 2420 ng·h/mL.

What about the Cmax [2, 11] of the same compound?
The Cmax was 189 ng/mL.

What about the Tmax [2, 11] of the same compound?
Its Tmax is 3.92 h.

What about the AUC [2, 12] of the same compound?
The AUC was 4940 ng·h/mL.

What about the Cmax [2, 12] of the same compound?
Its Cmax is 386 ng/mL.

What about the Tmax [2, 12] of the same compound?
Its Tmax is 4 h.
